In patent US11932595B2, “VDR-silent vitamin D derivative as inhibitors of SREBP and pharmaceutical use thereof” (KYOTO UNIVERSITY, priority 2020, dated 2024):
Entries after “also recorded” stand apart in the source; their conditions may differ.

Molecular target: T1, endogenous SREBP-2 and SCAP (Cricetulus griseus, UniProt P97260)
T1 construct: Western blot analysis of endogenous SREBP-2 and SCAP; endogenous in cells; host or cells: CHO-K1
T1 sequence (P97260 1-1276): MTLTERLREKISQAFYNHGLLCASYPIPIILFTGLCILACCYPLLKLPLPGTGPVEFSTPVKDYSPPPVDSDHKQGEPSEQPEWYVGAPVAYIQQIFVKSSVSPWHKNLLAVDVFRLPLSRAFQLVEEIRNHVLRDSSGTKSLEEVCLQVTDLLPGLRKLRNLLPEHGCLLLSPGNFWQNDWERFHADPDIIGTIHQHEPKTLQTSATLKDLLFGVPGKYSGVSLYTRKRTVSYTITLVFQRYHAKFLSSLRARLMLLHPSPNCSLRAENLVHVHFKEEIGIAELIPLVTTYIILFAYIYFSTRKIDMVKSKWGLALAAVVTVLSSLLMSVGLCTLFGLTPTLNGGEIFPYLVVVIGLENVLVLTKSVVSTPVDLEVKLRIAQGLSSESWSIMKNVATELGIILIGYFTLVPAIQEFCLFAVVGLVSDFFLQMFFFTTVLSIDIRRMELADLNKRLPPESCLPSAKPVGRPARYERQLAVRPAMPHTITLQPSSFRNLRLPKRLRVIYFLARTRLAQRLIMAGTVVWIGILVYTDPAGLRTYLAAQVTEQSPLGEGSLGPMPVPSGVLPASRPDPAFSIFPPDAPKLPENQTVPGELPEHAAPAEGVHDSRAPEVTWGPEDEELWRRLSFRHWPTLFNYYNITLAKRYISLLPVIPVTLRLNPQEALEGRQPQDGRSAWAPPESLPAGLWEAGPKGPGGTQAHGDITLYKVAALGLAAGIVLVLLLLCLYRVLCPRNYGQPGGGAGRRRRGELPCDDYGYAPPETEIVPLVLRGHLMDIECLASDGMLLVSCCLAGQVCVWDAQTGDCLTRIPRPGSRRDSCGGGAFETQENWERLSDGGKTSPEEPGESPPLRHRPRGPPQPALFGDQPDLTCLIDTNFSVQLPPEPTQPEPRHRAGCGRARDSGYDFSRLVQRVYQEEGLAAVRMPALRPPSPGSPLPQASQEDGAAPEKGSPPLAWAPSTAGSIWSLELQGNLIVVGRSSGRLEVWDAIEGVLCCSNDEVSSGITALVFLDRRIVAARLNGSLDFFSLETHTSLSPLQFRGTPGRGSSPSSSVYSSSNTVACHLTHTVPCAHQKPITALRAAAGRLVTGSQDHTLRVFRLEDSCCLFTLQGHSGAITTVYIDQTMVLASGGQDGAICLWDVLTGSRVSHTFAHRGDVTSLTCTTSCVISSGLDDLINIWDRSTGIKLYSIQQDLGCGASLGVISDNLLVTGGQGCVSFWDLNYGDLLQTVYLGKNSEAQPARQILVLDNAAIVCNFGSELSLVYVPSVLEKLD
T1 sequence (Q60429 1-1139 partner): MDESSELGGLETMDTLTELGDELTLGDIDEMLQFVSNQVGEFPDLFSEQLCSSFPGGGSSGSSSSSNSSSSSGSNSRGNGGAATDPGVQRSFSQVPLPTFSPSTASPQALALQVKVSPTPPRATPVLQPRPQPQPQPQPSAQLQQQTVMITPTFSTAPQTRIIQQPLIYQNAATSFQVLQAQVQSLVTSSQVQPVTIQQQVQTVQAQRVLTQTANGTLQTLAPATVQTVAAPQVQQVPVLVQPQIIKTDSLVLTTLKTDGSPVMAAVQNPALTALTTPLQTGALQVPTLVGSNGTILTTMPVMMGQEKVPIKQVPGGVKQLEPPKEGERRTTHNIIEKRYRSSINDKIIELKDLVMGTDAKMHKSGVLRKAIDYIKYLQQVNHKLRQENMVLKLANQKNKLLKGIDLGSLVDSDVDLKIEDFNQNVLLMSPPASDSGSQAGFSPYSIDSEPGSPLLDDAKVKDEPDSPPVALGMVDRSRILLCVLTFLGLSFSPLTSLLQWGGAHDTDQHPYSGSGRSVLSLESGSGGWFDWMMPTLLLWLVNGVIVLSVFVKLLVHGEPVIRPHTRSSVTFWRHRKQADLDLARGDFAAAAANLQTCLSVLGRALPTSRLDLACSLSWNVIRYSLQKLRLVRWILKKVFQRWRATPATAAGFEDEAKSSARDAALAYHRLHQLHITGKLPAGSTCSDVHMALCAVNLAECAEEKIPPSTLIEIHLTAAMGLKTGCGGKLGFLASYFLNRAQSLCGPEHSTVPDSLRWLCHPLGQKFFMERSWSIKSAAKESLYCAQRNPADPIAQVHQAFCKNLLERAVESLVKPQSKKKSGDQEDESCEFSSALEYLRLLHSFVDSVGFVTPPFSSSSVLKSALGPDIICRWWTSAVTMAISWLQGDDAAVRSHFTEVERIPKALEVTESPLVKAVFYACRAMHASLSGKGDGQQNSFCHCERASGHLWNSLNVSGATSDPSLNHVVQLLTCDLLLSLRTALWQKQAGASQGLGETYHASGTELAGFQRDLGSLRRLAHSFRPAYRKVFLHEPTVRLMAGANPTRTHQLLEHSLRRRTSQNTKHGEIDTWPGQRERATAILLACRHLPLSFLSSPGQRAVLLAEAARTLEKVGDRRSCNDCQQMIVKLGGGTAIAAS
Assay: Western blot analysis of endogenous SREBP-2 and SCAP in CHO-K1 cells
Type: cell-based
Details: FIG. 6B; for protein levels of precursor and mature forms of SREBP-2 and of SCAP: CHO-K1 cells, lipid-free medium, 24 h
Procedure: 25(OH)D3 and KK-052 decreased the protein levels of both precursor and mature forms of SREBP-2, as well as SCAP. (CHO-K1 cells were treated with the compound in a lipid-free medium for 24 h); (C) Western blot analysis of SCAP: CHO-K1 cells expressing FLAG-tagged SCAP were treated with the compound in a lipid-free medium for 24 h and immunoblots were performed with an anti-FLAG antibody.
The effects of KK-052 (50) on SREBP and SCAP by gene reporter assay and Western blot analysis were verified. […] Overall, the results were consistent with the effects of KK-052 in vivo.

Row | effect on endogenous SREBP and SCAP levels at 1 μM (1 μM concentration) | SMILES | protein levels of precursor and mature forms of SREBP-2 and of SCAP | protein levels of precursor and mature forms of SREBP-2 and of SCAP (listed as KK-052)
1 |  | C=C1CC[C@H](O)C/C1=C/C=C1\CCC[C@]2(C)[C@@H]([C@H](C)CCCC(C)(C)O)CC[C@@H]12 [25(OH)D3, 25-hydroxyvitamin D3, reference compound] | decreased | 
2 | less evident | C[C@H](CCC(F)(F)C(C)(C)O)[C@H]1CC[C@H]2/C(=C/Cn3nnnc3-c3ccccc3)CCC[C@]12C [Compound 50, (R)-3,3-Difluoro-2-methyl-6-{(1R,3aS,7aR,E)-7a-methyl-4-[2-(5-phenyl-1H-tetrazol-1-yl)ethylidene]octahydro-1H-inden-1-yl}heptan-2-ol] |  | decreased; also recorded: decreasing the level
